How the values were obtained:
45S intermediate = assay: In vitro association of YlqF-His6 with ribosomal particles (sucrose gradient, Western blot); assay type: binding, B. subtilis; details: incubated 10 minutes at 37° C.; 10-25% sucrose gradient; FIG. 16
Protocol: (§1) The data was collected from 12% SDS-PAGE electrophoresis and blotted to a nylon membrane using standard Western Blot analysis. Incubations using rabbit polyclonal YlqF antibody was followed by horseradish peroxidase-conjugated goat anti-rabbit antibody and Western Lightning® (PerkinElmer) chemiluminescent detection. Purified YlqF-His6 was added as a comparative marker.
(§2) A B. subtilis strain was constructed that expresses a YlqF-His6 fusion protein as the only functional YlqF copy in the cell. […] The YlqF-His6 fusion protein was purified and tested for association with purified 45S intermediates and mature 50S subunits. YlqF-His6 and either the 45S intermediate or 50S subunits were mixed and incubated for 10 minutes at 37° C. The mixtures were then fractionated on 10-25% sucrose gradients and individual fractions corresponding to the 45S and 50S peaks were collected. […] Although it is not necessary to understand the mechanism of an invention, it is believed that YlqF functions as a factor involved in the biogenesis of the 50S subunit.

50S subunit = details: incubated 10 minutes at 37° C.; 10-25% sucrose gradient; FIG. 16
Protocol: as §1, §2

YlqF-His6: purified His6 fusion to the C-terminus of B. subtilis GTPase YlqF
binding to 45S intermediate (45S intermediate): able to bind the 45S intermediate
binding to mature 50S subunit (50S subunit): not the 50S subunit
